We go through 3 compounds from US8703215B2, “Agents from Ficus hispida for the amelioration of metabolic syndrome and related diseases” (Laila Nutraceuticals, priority 2009, dated 2014).

One series has as its system human cancer cells. As to conditions: small panel of human cancer cells; cited from earlier work.
Series [1] is described as follows: Body weight gain in high fat diet induced obesity model of Sprague-Dawley rats. Format: in vivo. The conditions noted are these: 7 mg/kg oral daily, 8 weeks. The text has this:
(§1) Induction: Selected healthy Sprague-Dawley rats were randomly assigned to control or various treatment groups (n=7). All the animals allocated to the obesity study were made experimentally obese through dietary intervention during the entire eight weeks induction period by feeding high fat diet ad libitum containing Bengal gram 32 g, Wheat floor 15 g, Yeast 1 g, Butter 2 g, Ground nut oil 8 g, Casein 5 g, Vanaspathi 20 g, Vitamin mix 05 g, Milk powder 12 g and Mineral Salt mixture 4.5 g per 100 g of high fat diet.
Treatment: Following 8 weeks of induction phase, the animals were treated orally (using oral feeding gavage) with either of the allocated test substances or vehicle daily for 8 weeks. […]
Body weights: Body weight of individual animal was recorded weekly during the entire duration of the study. Mean body weights for the treatment groups and control group were determined. The body weight gain was calculated at the end of 1st week, 4th week and 8th week after initiation of treatment in comparison to initial body weights. The percentage reduction in weight gain in the treatment groups was then calculated by comparing the weight gain in each treatment with that of control group. […]

For the next series, the system named is adiponectin. As to the kind of experiment: Serum adiponectin in high fat diet induced obese rats (ELISA). Format: in vivo, Sprague-Dawley rats. The conditions noted are these: 7 mg/kg daily, 8 weeks.
From the text: as §1
(§2) Treatment: Following 8 weeks of induction phase, the animals were treated orally (using oral feeding gavage) with either of the allocated test substances or vehicle daily for 8 weeks. The animals of treatment groups were supplemented with 100 mg/kg body weight of LI/PD/044B/03 or 250 mg/kg body weight of LI/PD/044B/03 or 7 mg/kg body weight of sibutramine in 10 mL of 0.5% CMC in water for further 8 weeks. The control group of animals received only the vehicle (10 mL of 0.5% CMC in water) during this period. During the treatment phase, all animals were provided with the standard rodent diet till the end of the study.
Estimation of Biomarker Adiponectin: The serum adiponectin concentration for the control and treatment groups of animals were assessed using double antibody based sandwich rat adiponectin ELISA kit. […]
(In an ELISA, binding on a coated surface is turned into a signal by an enzyme label.)

Series [2] in a line: Serum LDL in high fat diet induced obese rats. In kind it is in vivo, Sprague-Dawley rats. The conditions noted are these: 7 mg/kg, 8 weeks.
From the text: as §1, §2
Serum LDL concentration: The serum LDL levels in animals supplemented with different Treatments and control were estimated on Human Biochemistry Analyzer (German) and the results are summarized in FIG. 7B.

Take `COc1ccc2c3c(c4cc(OC)c(OC)cc4c2c1)CN1CCCC1C3O` (centres unmarked) [O-Methyltylophorinidine]: the cytotoxic activity entry with human cancer cells is “potent cytotoxic activity”.

On to ficustriol, for which, in the series on human cancer cells, the cytotoxic activity entry was “inactive”.

As to `CC(C)CC(N(C)C)C1(c2ccc(Cl)cc2)CCC1` (centres unmarked) [sibutramine], in series [1], the “reduction in body weight gain vs control group” value stood at 40%. For the same compound, in the series on adiponectin, the “improvement in serum adiponectin concentration vs baseline” value is 6.3%. In series [2], the “serum LDL concentrations” value is reported as “significant reduction”.
